# Read-outs that look alike come from different tables or passages of the source.
# Assays:
# [1] = target: T1, St-B17 serotonin receptor (Rattus norvegicus, UniProt P31388, L57V); assay: [125I]-LSD competition binding, Cos-7 cell membranes expressing St-B17; set-up: expressed in transfected cells; host or cells: Cos-7 cells, transient transfection, crude membranes; settings: for affinity for St-B17 (in words): qualitative statement
# Experimental: (§1) This experiment was performed on Cos-7 cell membranes expressing the St-B17 serotonin receptor.
# [2] = target: T2, St-B17 serotonin receptor (Rattus norvegicus, UniProt P31388); assay: as above; settings: read-out: Ki vs. [125I]-LSD, Mean ± SEM
# T2 construct: expressed in transfected cells; host or cells: Cos-7 cells, transient transfection, crude membranes
# Experimental: as §1
# [3] = target: T3, St-B17 stably expressed in HEK-293 cells (Rattus norvegicus, UniProt P31388, L57V); assay: cAMP accumulation in intact HEK-293 cells stably expressing St-B17; format: cell-based
# T3 construct: expressed in transfected cells
# Experimental: Human Embryonic Kidney cells (HEK 293 available from the ATCC) were stably co-transfected in 150mm dishes by the CaPO4 technique with 30 μg of pSRα-B17 and 3 μg of pMam-neo (INVITROGEN). These HEK 293 cells were then subjected to selection with 600 μg/ml genetecin (G418) (GIBCO). The resistant colonies were collected and screened for receptor expression by [^125I]-LSD binding as described in Example 6.
# Intracellular cAMP levels were determined after a 5 minute incubation of intact cells with various test compounds at 37° C. in the presence of the cAMP phosphodiesterase inhibitor RO-20-1724, using a modification of a previously described cAMP assay (Monsma, F. J., Jr., Barton, A. C., and Sibley, D. R. (1990) J. Neurochemistry 54, 1200-1207) wherein the adrenal cAMP binding protein was replaced with 0.8 mg/ml protein kinase A in water.
# [4] = target: T1, St-B17 serotonin receptor; assay: [3H]-5-HT competition binding, Cos-7 cell membranes expressing St-B17; set-up: expressed in transfected cells; host or cells: Cos-7 cells, transient transfection, crude membranes
# [5] = system: adenylyl cyclase activity in the NCB-20 neuroblastoma cell line; settings: NCB-20 cells, literature; read-out: EC50, activation of adenylyl cyclase; cited from earlier work
# [6] = target: T1, St-B17 serotonin receptor; assay: Saturation analysis of [3H]-5-HT binding in transfected Cos-7 cells; set-up: expressed in transfected cells; host or cells: Cos-7 cells, transient transfection, crude membranes
# Text: The binding of [^3H]-5-HT was similarly not affected by the addition of guanine nucleotides.
# [7] = target: T1, St-B17 serotonin receptor
# [8] = Ki vs. [125I]-LSD, Mean ± SEM, 0.5 nM [125I]-LSD, Cos-7 membranes, n=3, Cheng-Prussoff from IC50
# [9] = 0.5 nM [125I]-LSD, Cos-7 membranes, n=3, Cheng-Prussoff from IC50
# [10] = 10 μM final concentration, FIG. 5
# [11] = 5 nM [3H]-5-HT, Cos-7 membranes, n=3, Cheng-Prussoff from IC50, read-out: Ki vs. [3H]-5-HT, Mean ± SEM
# [12] = read-out: Ki vs. [3H]-5-HT, Mean ± SEM
# [13] = screened compounds, radioligand not restated, read-out: inhibition constant (Ki)
# [14] = inhibition constant (Ki), screened compounds, radioligand not restated
# T1 sequence (P31388 with tags, fused parts or gaps L57V): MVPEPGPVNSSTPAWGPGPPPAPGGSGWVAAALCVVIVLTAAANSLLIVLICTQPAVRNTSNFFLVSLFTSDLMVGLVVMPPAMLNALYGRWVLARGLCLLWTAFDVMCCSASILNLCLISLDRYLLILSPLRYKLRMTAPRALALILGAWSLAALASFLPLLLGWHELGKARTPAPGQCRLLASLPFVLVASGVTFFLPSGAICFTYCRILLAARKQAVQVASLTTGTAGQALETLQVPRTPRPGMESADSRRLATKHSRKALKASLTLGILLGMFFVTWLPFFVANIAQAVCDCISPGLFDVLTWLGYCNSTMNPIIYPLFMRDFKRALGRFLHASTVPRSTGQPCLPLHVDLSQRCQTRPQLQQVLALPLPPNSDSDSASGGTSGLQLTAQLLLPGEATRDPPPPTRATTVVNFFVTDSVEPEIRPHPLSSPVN
# T3 sequence (P31388 with tags, fused parts or gaps L57V): as above
# T2 sequence (P31388 with tags, fused parts or gaps L57V): as above
molecule,measurement,setting,value
c1ccc2c(N3CCNCC3)cccc2c1 [1(1-naphthyl)piperazine],Ki,[1]; [8],104 ± 13.8 nM
CCN(CC)C(=O)[C@@H]1C=C2c3cccc4[nH]c(Br)c(c34)C[C@H]2N(C)C1 [2-Br-LSD],Ki,[2]; [9],17.1 ± 1.11 nM
COc1ccccc1N1CCNCC1 [2-MPP],Ki,[2]; [9],3050 ± 321 nM
NCCc1c[nH]c2ccc(OCc3ccccc3)cc12 [5-Benzyloxytryptamine],Ki,[1]; [8],110 ± 17.9 nM
NCCc1c[nH]c2ccc(C(N)=O)cc12 [5-Carboxamidotryptamine],Ki,[2]; [9],774 ± 84.4 nM
same,effect on cAMP levels on their own (in words),[3]; [10],elicit an increase in cAMP levels
same,Ki,[4]; [11],253 ± 20 nM
"NCCc1c[nH]c2ccc(O)cc12 [5-HT, 5-hydroxytryptamine]",Ki,[2]; [9],151 ± 12.8 nM
same,EC50,[3],145 nM
same,EC50,[5],300 nM
same,influence of guanine nucleotide analogue GppNHp on affinity,[1]; addition of GppNHp,not influenced
same,Hill coefficient for the competition curve,[1]; vs. [125I]-LSD,not significantly different from unity
"CNCCc1c[nH]c2ccc(O)cc12 [5-Hydroxy-N,ω-methyltryptamine]",Ki,[2]; [9],58 ± 8.32 nM
COc1ccc2[nH]cc(CCN)c2c1 [5-methoxytryptamine],effect on cAMP levels on their own (in words),[3]; [10],elicit an increase in cAMP levels
same,Ki,[1]; [8],38.9 ± 3.95 nM
CCCN(CCC)C1CCc2cccc(O)c2C1 (centres unmarked) [8-OH-DPAT],affinity for St-B17 (in words),[1],relatively low affinity
CN(C)CCC=C1c2ccccc2CCc2ccccc21 [Amitriptyline],Ki,[2]; [9],69.6 ± 7.21 nM
same,Ki,[4]; [12],82 ± 6 nM
Clc1ccc2c(c1)C(N1CCNCC1)=Nc1ccccc1O2 [Amoxipine],Ki,[2]; [9],30.4 ± 1.64 nM
same,effect on cAMP levels on their own (in words),[3]; [10],no significant effect on cAMP levels
same,effect on the cAMP response elicited by 5-HT (in words),[3]; [10],substantially inhibit the response elicited by 5-HT
same,functional classification at St-B17 receptor,[3]; [10],antagonists
COc1cc(N)c(Cl)cc1C(=O)NC1CCN2CCCC1C2 (centres unmarked) [BRL 24924],Ki,[1]; [13],> 10000 nM
CN1C2CCCC1CC(NC(=O)c1nn(C)c3ccccc13)C2 (centres unmarked) [BRL 43694A],Ki,[1]; [13],> 10000 nM
CN1CCN(c2nc3cc(C(F)(F)F)ccc3n3cccc23)CC1.O=C(O)/C=C\C(=O)O.O=C(O)/C=C\C(=O)O [CGS 12066B],Ki,[2]; [9],738 ± 66.6 nM
same,affinity for St-B17 (in words),[1],relatively low affinity
CC(C)C[C@H]1C(=O)N2CCC[C@H]2[C@]2(O)O[C@](NC(=O)[C@@H]3C[C@@H]4c5cccc6[nH]cc(c56)C[C@H]4N(C)C3)(C(C)C)C(=O)N12 [Dihydroergocryptine],Ki,[1]; [8],161 ± 13.2 nM
CN1C[C@H](C(=O)N[C@]2(C)O[C@@]3(O)[C@@H]4CCCN4C(=O)[C@H](Cc4ccccc4)N3C2=O)C[C@@H]2c3cccc4[nH]cc(c34)C[C@H]21 [Dihydroergotamine],effect on cAMP levels on their own (in words),[3]; [10],stimulate cAMP accumulation
same,functional classification at St-B17 receptor,[3]; [10],partial agonists
same,Ki,[1]; [8],13.1 ± 0.9 nM
same,Ki,[4],5.4 ± 5.4 nM
"CN1[C@@H]2CC[C@H]1C[C@@H](OC(=O)c1c[nH]c3ccccc13)C2 [ICS 205,930]",affinity for St-B17 (in words),[1],virtually no affinity
CN1C[C@H](CC#N)C[C@@H]2c3cccc4[nH]c(Cl)c(c34)C[C@H]21 [Lergotrile],Ki,[2],36.5 ± 1.04 nM
CN1CCN(C2=Nc3ccccc3Oc3ccc(Cl)cc32)CC1 [Loxapine],Ki,[2]; [9],64.75 ± 0.6 nM
same,Ki,[4]; [12],56 ± 1.5 nM
CN1[C@@H]2CC[C@H]1C[C@@H](OC(=O)c1cc(Cl)cc(Cl)c1)C2 [MDL 72222],affinity for St-B17 (in words),[1],virtually no affinity
same,Ki,[1]; [13],> 10000 nM
CN1C[C@@H](NS(=O)(=O)N(C)C)C[C@@H]2c3cccc4c3c(cn4C)C[C@H]21 [Mesulergine],Ki,[2]; [9],1720 ± 248 nM
CN1C[C@H](CNC(=O)OCc2ccccc2)C[C@@H]2c3cccc4c3c(cn4C)C[C@H]21 [Metergoline],Ki,[2]; [9],30 ± 0.38 nM
same,Ki,[4]; [12],61 ± 23 nM
CC[C@@H](CO)NC(=O)[C@@H]1C=C2c3cccc4c3c(cn4C)C[C@H]2N(C)C1 [MethyscrGide],Ki,[2]; [9],372 ± 72.7 nM
"COc1ccc2[nH]cc(CCN(C)C)c2c1 [N,N-Dimethyl-5-methoxytryptamine]",Ki,[1]; [8],79.8 ± 3.86 nM
COc1ccccc1N1CCN(CCCCN2C(=O)c3ccccc3C2=O)CC1 [NAN-190],Ki,[1]; [14],> 10000 nM
CNCCC=C1c2ccccc2CCc2ccccc21 [Nortriptyline],Ki,[2]; [9],147 ± 2.61 nM
Nc1ccc(CCN2CCN(c3cccc(C(F)(F)F)c3)CC2)cc1 [PAPP],Ki,[2]; [9],806 ± 75.2 nM
CCCN1C[C@H](CSC)C[C@@H]2c3cccc4[nH]cc(c34)C[C@H]21 [Pergolide],Ki,[2]; [9],29.9 ± 7.31 nM
same,affinity for St-B17 (in words),[1],relatively high affinity
Cc1nc2sccn2c(=O)c1CCN1CCC(=C(c2ccc(F)cc2)c2ccc(F)cc2)CC1 [Ritanerin],Ki,[2]; [9],44.1 ± 4.35 nM
same,Ki,[4]; [11],16 ± 2 nM
FC(F)(F)c1cccc(N2CCNCC2)c1 [TFMPP],Ki,[1]; [8],482 ± 37.2 nM
NCCc1c[nH]c2ccc(O)cc12 [[^3H]-5-HT],Bmax,[6]; [3H]-5-HT saturation binding,1-3 pMoles/mg protein
same,Kd,"[6]; [3H]-5-HT saturation binding, n=3",37 nM
same,effect of guanine nucleotides on binding,[6]; addition of guanine nucleotides,not affected
"CCN(CC)C(=O)[C@@H]1C=C2c3cccc4[nH]c(I)c(c34)C[C@H]2N(C)C1 [[^125I]-LSD, lysergic acid diethylamide]",Kd,"[7]; KD, representative experiment (FIG. 1, scatchard analysis), single representative experiment",1.5 nM
same,Kd,"[7]; dissociation constant (KD), [125I]-LSD saturation binding, Cos-7 membranes, mean n=3",1.26 nM
same,maximum binding (Bmax),[7]; range over experiments,2-5 pMoles/mg protein
same,"Bmax, representative experiment (FIG. 1)",[7]; single representative experiment,3.4 pMoles mg protein^−1
same,affinity for St-B17 (in words),[1],relatively high affinity
CN(C)CCCC1(c2ccc(F)cc2)OCc2cc(C#N)ccc21 (centres unmarked) [citalopram],Ki,[1]; [14],> 10000 nM
NCCc1ccc(O)c(O)c1 [dopamine],Ki,[1]; [13],> 10000 nM
CNC[C@H](O)c1ccc(O)c(O)c1 [epinephrine],Ki,[1]; [13],> 10000 nM
CCNC(C)Cc1cccc(C(F)(F)F)c1 (centres unmarked) [fenfluramine],Ki,[1]; [14],> 10000 nM
NCCc1c[nH]cn1 [histamine],Ki,[1]; [13],> 10000 nM
c1ccc2c(c1)OCC(C1=NCCN1)O2 (centres unmarked) [idazoxan],Ki,[1]; [13],> 10000 nM
O=C(c1ccc(F)cc1)C1CCN(CCn2c(=O)[nH]c3ccccc3c2=O)CC1 [ketanserin],affinity for St-B17 (in words),[1],relatively low affinity
same,Ki,[1]; [13],> 10000 nM
Clc1cccc(N2CCNCC2)c1 [mCPP],Ki,[2]; [9],2310 ± 343 nM
COc1ccc2[nH]cc(CCNC(C)=O)c2c1 [melatonin],Ki,[1]; [13],> 10000 nM
NC[C@H](O)c1ccc(O)c(O)c1 [norepinephrine],Ki,[1]; [13],> 10000 nM
NCC(O)c1ccc(O)cc1 (centres unmarked) [octopamine],Ki,[1]; [13],> 10000 nM
Fc1ccc([C@@H]2CCNC[C@H]2COc2ccc3c(c2)OCO3)cc1 [paroxetine],Ki,[1]; [14],> 10000 nM
CC(C)NCC(O)COc1cccc2[nH]ccc12 (centres unmarked) [pindolol],Ki,[1]; [13],> 10000 nM
O=C(CCCN1CCC2(CC1)C(=O)NCN2c1ccccc1)c1ccc(F)cc1 [spiroperidol],Ki,[1]; [13],> 10000 nM
NCCc1ccc(O)cc1 [tyramine],Ki,[1]; [13],> 10000 nM
COc1cc(N)c(Cl)cc1C(=O)NC1CN2CCC1CC2 (centres unmarked) [zacopride],Ki,[1]; [13],> 10000 nM
CN(C)C/C=C(/c1ccc(Br)cc1)c1cccnc1 [zimelidine],Ki,[1]; [13],> 10000 nM
"N,ω-Methyltryptamine",Ki,[2]; [9],342 ± 32.2 nM

# — patent publication US6844190B2, “St-B17 serotonin receptor” (The United States of America as represented by the …, priority 1992, dated 2005)
